The text below walks through data of patent US20090048196A1, “Membrane receptor for retinol binding protein mediates cellular uptake of vitamin A, methods of use and compositions” (THE REGENTS OF THE UNIVERSITY OF CALIFORNIA, priority 2007, published 2009).

Holding throughout (format): cell-based
Data set [1] concerns primary bovine RPE culture. Put plainly: Vitamin A uptake activity of primary bovine RPE culture from holo-RBP. Particulars: 100 nM RNAi oligo, transfected twice, 72 h each. As to the method:
(§1) Production of ^3H-retinol loaded RBP and retinol uptake assay based on ^3H-retinol/RBP: Apo-RBP was prepared from holo-RBP as described (3). Radioactive retinol (15-^3H(N)-retinol) was purchased from American Radiolabeled Chemicals Inc. Ten micrograms apo-His-RBP was incubated with 150 pmol retinol (3 μCi) at 24° C. overnight. Radiolabeled holo-His-RBP was bound to Ni-NTA resin and the resin was washed extensively with 10 mM imidazole in PBS. Radiolabeled His-RBP was eluted with 100 mM imidazole in PBS. For the vitamin A uptake assay, transfected or untransfected cells grown on 12-well or 24-well cell culture plates were washed once with PBS and incubated with the ^3H-retinol/RBP diluted in SFM for various lengths of time. The reactions were stopped by washing the cells with PBS and solubilizing cells in 1% Triton X-100 in PBS. Radioactivity was measured with a scintillation counter.
Primary culture and RNAi transfection of bovine RPE cells: Primary cultures of RPE cells were derived from adult bovine eyes obtained from a local slaughterhouse. After the removal of vitreous and retina, the posterior half of the eye was incubated in 2% Dispase solution (Boehringer Mannheim) for 2 h. Sheets of RPE cells were then collected and washed with Hanks' Balanced salt solution (Irvine Scientific). The RPE cells were exposed to 0.05% Trypsin and 0.02% EDTA solution for 5 minutes at room temperature. The RPE cells were suspended in CEM replacement medium containing 10% calf serum and 1% penicillin-streptomycin as described previously (12), and the cells were then seeded at a density of 3×10^5 cells/cm^2 onto 12 mm millicell-PCF culture wells with a pore size of 0.45 um (Millipore Corp.). The RPE cells were maintained at 37° C. in a 5% CO2 incubator for 10 days before RNAi transfection. […] Semi-quantitative PCR was carried out for 26 cycles at 95° C. for 30 sec (denaturation), 60° C. for 30 sec (annealing), and 72° C. for 30 min (extension). cDNA synthesized from 32 ng of total RNA was used for each reaction. […]

Data set [2] deals with bovine STRA6. The data set is described as follows: STRA6 expression in primary bovine RPE culture (semi-quantitative PCR). The note with it: 100 nM RNAi oligo, transfected twice, 72 h each. As to the method:
Primary culture and RNAi transfection of bovine RPE cells: Primary cultures of RPE cells were derived from adult bovine eyes obtained from a local slaughterhouse. After the removal of vitreous and retina, the posterior half of the eye was incubated in 2% Dispase solution (Boehringer Mannheim) for 2 h. Sheets of RPE cells were then collected and washed with Hanks' Balanced salt solution (Irvine Scientific). The RPE cells were exposed to 0.05% Trypsin and 0.02% EDTA solution for 5 minutes at room temperature. The RPE cells were suspended in CEM replacement medium containing 10% calf serum and 1% penicillin-streptomycin as described previously (12), and the cells were then seeded at a density of 3×10^5 cells/cm^2 onto 12 mm millicell-PCF culture wells with a pore size of 0.45 um (Millipore Corp.). The RPE cells were maintained at 37° C. in a 5% CO2 incubator for 10 days before RNAi transfection. For RNAi transfection, bovine RPE cells were washed once with PBS and incubated in fresh DMEM/10% FBS media. Cells were transfected with 100 nM RNAi oligos (Stealth RNAi, Invitrogen) using DharmaFect1 according to manufacturer's protocol and incubated at 37° C. for 72 h. Cells were then transfected under the same conditions and incubated for another 72 h. RNAi oligo sequences used for this assay were 5′-[…]-3′ (S-4) (SEQ ID NO:8), 5′-[…]-3′ (S-5) (SEQ ID NO:9) and 5′-[…]-3′ (S-6) (SEQ ID NO:10). Semi-quantitative PCR was carried out for 26 cycles at 95° C. for 30 sec (denaturation), 60° C. for 30 sec (annealing), and 72° C. for 30 min (extension). cDNA synthesized from 32 ng of total RNA was used for each reaction. Primers used for PCR reaction to detect bovine STRA6 are 5′-[…]-3′ (forward primer (SEQ ID NO:11)), 5′-[…]-3′ (reverse primer (SEQ ID NO:12)).

The subject of data set [3] is human STRA6. The data set is described as follows: STRA6 expression in WiDr cells (semi-quantitative PCR). The note with it: 100 nM RNAi oligo, 65 hrs. On the procedure:
RNAi transfection and retinoic acid treatment of human WiDr colon adenocarcinoma cells: WiDr cells (American Type Culture Collection) were grown in Earle's balanced salt media with 10% FBS at 37° C. in a 95% air/5% CO2 humidified incubator. Human STRA6 RNAi oligo sequences were 5′-[…]-3′ (S-1) (SEQ ID NO:3), 5′-[…]-3′ (S-2) (SEQ ID NO:4); and 5′-[…]-3′ (S-3) (SEQ ID NO:5). Stealth™ negative control RNAi with medium GC (Invitrogen) was used for a negative control. WiDr cells were transfected with 100 nM RNAi oligos using DharmaFect1 (Dharmacon) according to the manufacture's protocol. WiDr Cells were split one day before RNAi transfection and cells were incubated with RNAi oligos for 65 hrs after transfection. Retinoic acid treatment was applied for 55 hours. RNA was isolated from WiDr cells using the RNeasy kit (Qiagen). Reverse transcription was performed with Invitrogen's SuperScriptIII First-Strand Synthesis System. Semi-Quantitative PCR was carried out for 24 cycles at 95° C. for 30 sec (denaturation), 63° C. for 30 sec (annealing), and 72° C. for 30 min (extension). cDNA synthesized from 40 ng of total RNA was used for each reaction. Primers used for PCR to detect human STRA6 were 5′-[…]-3′ (human STRA6 forward primer (SEQ ID NO:6)), 5′-[…]-3′ (human STRA6 reverse primer (SEQ ID NO:7)).

Data set [4] relates to WiDr human colon adenocarcinoma cells. The data set is described as follows: Vitamin A uptake activity of WiDr cells from 3H-retinol/RBP. Particulars: 100 nM RNAi oligo, 65 hrs. On the procedure: as §1
Effects of metabolic inhibitors on vitamin A uptake and endocytosis: To test the effect of metabolic inhibitors, cells were pretreated with metabolic inhibitors in serum free medium (50 mM 2-deoxyglucose and 5 mM sodium azide) at 37° C. for 30 min before incubation with ^3H-retinol/RBP for 45 min at 37° C. in the continued presence of the metabolic inhibitors. The slight increase in activity for MI-treated cells as shown in FIGS. 4C and 4D is reproducible. Endocytosis assay based on horseradish peroxidase (HRP) was performed similarly as described. Cells (80-100% confluence) were washed once with PBS and then incubated in SFM with or without metabolic inhibitors for 30 min at 37° C. […]
RNAi transfection and retinoic acid treatment of human WiDr colon adenocarcinoma cells: WiDr cells (American Type Culture Collection) were grown in Earle's balanced salt media with 10% FBS at 37° C. in a 95% air/5% CO2 humidified incubator. […] Semi-Quantitative PCR was carried out for 24 cycles at 95° C. for 30 sec (denaturation), 63° C. for 30 sec (annealing), and 72° C. for 30 min (extension). cDNA synthesized from 40 ng of total RNA was used for each reaction. […]

On to “S-6: Bovine STRA6 RNAi oligo 5′-GAGGAUUCCUAUGACAGCUGGUACA-3′ (SEQ ID NO:10) (listed as RNA, chemistry not given here)”, for which the “Vitamin A uptake activity” value in data set [1] was “suppresses”. Further, the STRA6 expression entry in data set [2] is recorded as “suppresses”.

In the case of “S-3: Human STRA6 RNAi oligo 5′-UGAGUAAGCAGGACAAGACCAAGGC-3′ (SEQ ID NO:5) (listed as RNA, chemistry not given here)”, the STRA6 expression entry in data set [3] is “suppresses”. The “Vitamin A uptake activity” value in data set [4] is listed as “suppresses”.

Consider “S-2: Human STRA6 RNAi oligo 5′-UAGAUGCAGUGUCUCAAGCAGACGC-3′ (SEQ ID NO:4) (listed as RNA, chemistry not given here)”, for which, in data set [3], the STRA6 expression entry was “suppresses”. In addition, in data set [4], the “Vitamin A uptake activity” value is “suppresses”.

With “S-1: Human STRA6 RNAi oligo 5′-UGAAGCUCAUCCAACAGAAUAUGGC-3′ (SEQ ID NO:3) (listed as RNA, chemistry not given here)”, the STRA6 expression result in data set [3] is reported as “suppresses”. For the same substance, the “Vitamin A uptake activity” value in data set [4] is on record as “suppresses”.

On to “S-4: Bovine STRA6 RNAi oligo 5′-CCGUCUACAUUCCACAACAAGGAUU-3′ (SEQ ID NO:8) (listed as RNA, chemistry not given here)”, for which, in data set [1], the “Vitamin A uptake activity” value is reported as “suppresses”. In data set [2], the STRA6 expression result is listed as “suppresses”.

As for “S-5: Bovine STRA6 RNAi oligo 5′-GGCUACCACACAUACUGCAACUUCU-3′ (SEQ ID NO:9) (listed as RNA, chemistry not given here)”, the “Vitamin A uptake activity” value in data set [1] is recorded as “suppresses”. The STRA6 expression result in data set [2] is reported as “suppresses”.
